The text below walks through data of publication PMC4959957 (British Journal of Pharmacology, 2016).

In the assay the target is T1, Asu-ACR-16 (Ascaris suum, UniProt A0A0K0QSL7).
T1 sequence (A0A0K0QSL7 24-504): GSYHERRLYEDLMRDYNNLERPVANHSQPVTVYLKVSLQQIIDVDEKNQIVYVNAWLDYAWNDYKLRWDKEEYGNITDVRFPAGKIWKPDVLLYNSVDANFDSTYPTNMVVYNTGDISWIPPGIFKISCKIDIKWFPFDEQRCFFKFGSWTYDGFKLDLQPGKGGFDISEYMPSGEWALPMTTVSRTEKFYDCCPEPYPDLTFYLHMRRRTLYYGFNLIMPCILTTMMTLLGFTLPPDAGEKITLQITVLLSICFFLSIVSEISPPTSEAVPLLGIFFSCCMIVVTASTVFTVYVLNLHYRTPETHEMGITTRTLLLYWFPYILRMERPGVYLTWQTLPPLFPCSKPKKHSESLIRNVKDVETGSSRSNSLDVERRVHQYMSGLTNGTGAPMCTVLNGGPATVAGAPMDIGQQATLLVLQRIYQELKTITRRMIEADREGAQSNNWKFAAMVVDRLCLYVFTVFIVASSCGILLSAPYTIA
Description: two-electrode voltage clamp, agonist concentration-response in Xenopus oocytes. Format: cell-based. A general note: Two-electrode voltage clamp holds a large cell at a set potential and records current.

Each structure is given as a SMILES string.

For orientation: EC50 means the concentration at which the effect is half-maximal. Compound `CN1CCC[C@H]1c1cccnc1` [nic, nicotine] registered an EC50 of 4.5 ± 0.2 µM.
On to `CC(=O)OCC[N+](C)(C)C` [ACh], for which a half-maximal response (EC50) required 5.9 ± 0.1 µM.
